Like-named read-outs stand apart in the source and are kept apart here.
Experiments:
[1] = system: renovascular hypertensive rats; assay: Effect on reducing blood pressure of renovascular hypertensive rats by single oral administration; assay type: in vivo, Wistar rats; conditions: for change in vivo at 1 mg/kg / inhibition in vivo at 1 mg/kg / change in vivo at 0.5 mg/kg / inhibition in vivo at 0.5 mg/kg / change in vivo at 2 mg/kg / inhibition in vivo at 2 mg/kg: Rattus norvegicus, single oral administration; for change in vivo at 1 mg/kg / change in vivo at 0.5 mg/kg / change in vivo at 2 mg/kg: RHR, read-out: Variations on heart rate; for inhibition in vivo at 1 mg/kg / inhibition in vivo at 0.5 mg/kg / inhibition in vivo at 2 mg/kg: two-kidney one-clip RHR, measured 1-10 h, read-out: Maximum blood pressure reduction; for blood pressure reduction at 24 hours after the administration: dose not stated
[2] = system: spontaneously hypertensive rats (SHR); assay: Effect on reducing blood pressure of spontaneously hypertensive rats (SHR) by multiple oral administrations; assay type: in vivo; conditions: for inhibition in vivo at 0.5 mg/kg: 0.5 mg/kg oral once per day
normal rats = assay: Effect on blood pressure of normal rats by single oral administration; assay type: in vivo, Wistar rats; conditions: Rattus norvegicus, po, single, normal rats; for inhibition in vivo at 1 mg/kg / inhibition in vivo at 0.5 mg/kg / inhibition in vivo at 2 mg/kg: 8 h, read-out: blood pressure reduction at 8 h after the administration; for inhibition in vivo at 1 mg/kg / change in vivo at 1 mg/kg: 1.0 mg/kg p.o.; for change in vivo at 1 mg/kg / change in vivo at 0.5 mg/kg / change in vivo at 2 mg/kg: read-out: variations on heart rate; for inhibition in vivo at 0.5 mg/kg / change in vivo at 0.5 mg/kg: 0.5 mg/kg p.o.; for inhibition in vivo at 2 mg/kg / change in vivo at 2 mg/kg: 2.0 mg/kg p.o.
[3] = Rattus norvegicus, 1.0 mg/kg oral once per day, SHR, 1 hour after the administration, read-out: Maximum blood pressure reduction, 1st-day administration
[4] = Rattus norvegicus, 1.0 mg/kg oral once per day, SHR, 1 hour after the administration, read-out: Maximum blood pressure reduction, 7th-day administration
[5] = Rattus norvegicus, 1.0 mg/kg oral once per day, SHR, 1 hour after the administration, read-out: Maximum blood pressure reduction, 14th-day administration
[6] = Rattus norvegicus, 1.0 mg/kg oral, SHR, read-out: Heart Rate (effect on reducing heart rate)
[7] = renal artery-ligated rat, result in words
[8] = Rattus norvegicus, SHR, 1 hour after the administration, read-out: Maximum blood pressure reduction, 1st-day administration
[9] = Rattus norvegicus, SHR, 1 hour after the administration, read-out: Maximum blood pressure reduction, 7th-day administration
[10] = Rattus norvegicus, SHR, 1 hour after the administration, read-out: Maximum blood pressure reduction, 14th-day administration
[11] = Rattus norvegicus, 2.0 mg/kg oral once per day, SHR, 1 hour after the administration, read-out: Maximum blood pressure reduction, 1st-day administration
[12] = Rattus norvegicus, 2.0 mg/kg oral once per day, SHR, 1 hour after the administration, read-out: Maximum blood pressure reduction, 7th-day administration
[13] = Rattus norvegicus, 2.0 mg/kg oral once per day, SHR, 1 hour after the administration, read-out: Maximum blood pressure reduction, 14th-day administration

SMILES | change in vivo at 1 mg/kg [1] [%] | inhibition in vivo at 1 mg/kg [1] [%] | inhibition in vivo at 1 mg/kg (normal rats) [%] | change in vivo at 1 mg/kg (normal rats) [%] | change in vivo at 0.5 mg/kg [1] [%] | inhibition in vivo at 0.5 mg/kg [1] [%] | change in vivo at 2 mg/kg [1] [%] | inhibition in vivo at 2 mg/kg [1] [%] | blood pressure reduction effect compared with Azilsartan medoxomil [1, 7] | inhibition in vivo at 0.5 mg/kg (normal rats) [%] | inhibition in vivo at 2 mg/kg (normal rats) [%] | change in vivo at 0.5 mg/kg (normal rats) [%] | change in vivo at 2 mg/kg (normal rats) [%] | further results
CCOc1nc2cccc(C(=O)OCc3oc(=O)oc3C)c2n1Cc1ccc(-c2ccccc2-c2noc(=O)[nH]2)cc1 [Azilsartan medoxomil, reference compound] | -7 ± 3 | 30 ± 3.8 | 6.4 ± 2.1 | -5 ± 2 | – | – | – | – | – | – | – | – | – | blood pressure reduction at 24 hours after the administration ([1]; renal artery-ligated rat): 20%; inhibition in vivo at 1 mg/kg [2, 3]: 32 ± 3.5%; inhibition in vivo at 1 mg/kg [2, 4]: 34 ± 2.8%; inhibition in vivo at 1 mg/kg [2, 5]: 36 ± 3.6%; inhibition in vivo at 1 mg/kg [2, 6]: 8 ± 3%
CCOc1nc2cccc(C(=O)OC(C)OC(=O)OC(C)C)c2n1Cc1ccc(-c2ccccc2-c2noc(=O)[nH]2)cc1 (centres unmarked) [QR01003] | -3 ± 2 | 28 ± 2.9 | 5.4 ± 1.9 | 4 | 2 | 15 ± 1.8 | -5 ± 2 | 36 ± 4.3 | close to that of Azilsartan medoxomil | 5.6 ± 3.1 | 6.4 ± 3.4 | -2 ± 2 | -3 ± 4 | inhibition in vivo at 0.5 mg/kg [2, 8]: 18 ± 4.6%; inhibition in vivo at 0.5 mg/kg [2, 9]: 21 ± 6.3%; inhibition in vivo at 0.5 mg/kg [2, 10]: 17 ± 6.8%; inhibition in vivo at 1 mg/kg [2, 3]: 31 ± 6.8%; inhibition in vivo at 1 mg/kg [2, 4]: 35 ± 7.3%; inhibition in vivo at 1 mg/kg [2, 5]: 36 ± 8.1%; inhibition in vivo at 2 mg/kg [2, 11]: 39 ± 5%; inhibition in vivo at 2 mg/kg [2, 12]: 41 ± 5.7%; inhibition in vivo at 2 mg/kg [2, 13]: 44 ± 6.1%
CCOc1nc2cccc(C(=O)OCOC(=O)C(C)(C)C)c2n1Cc1ccc(-c2ccccc2-c2noc(=O)[nH]2)cc1 [QR01005] | -21 ± 6 | 36 ± 3.1 | 3.6 ± 2.1 | -6 ± 6 | -10 ± 3 | 16 ± 3.2 | -25 ± 6 | 43 ± 3.5 | obviously superior to that of the Azilsartan medoxomil positive drug | 6.3 ± 1.3 | 4.8 ± 2.3 | -3 ± 1 | 8 | blood pressure reduction at 24 hours after the administration ([1]; renal artery-ligated rat): 21%; lasting time of the blood pressure reduction effect compared with Azilsartan medoxomil [1, 7]: close to that of Azilsartan medoxomil; inhibition in vivo at 0.5 mg/kg [2, 8]: 16 ± 4.8%; inhibition in vivo at 0.5 mg/kg [2, 9]: 18 ± 5.2%; inhibition in vivo at 0.5 mg/kg [2, 10]: 21 ± 3.9%; inhibition in vivo at 1 mg/kg [2, 3]: 38 ± 3.7%; inhibition in vivo at 1 mg/kg [2, 4]: 40 ± 6.2%; inhibition in vivo at 1 mg/kg [2, 5]: 42 ± 6.1%; inhibition in vivo at 1 mg/kg [2, 6]: 23 ± 6%; inhibition in vivo at 2 mg/kg [2, 11]: 45 ± 4.8%; inhibition in vivo at 2 mg/kg [2, 12]: 41 ± 6.2%; inhibition in vivo at 2 mg/kg [2, 13]: 45 ± 7.2%; inhibition in vivo at 2 mg/kg ([2]; Rattus norvegicus, 2.0 mg/kg oral, SHR, read-out: Heart Rate (effect on reducing heart rate)): 21 ± 4%; inhibition in vivo at 5 mg/kg ([2]; Rattus norvegicus, 5 mg/kg oral, SHR, read-out: Heart Rate (effect on reducing heart rate)): 18 ± 5%; blood pressure reduction effect compared with Azilsartan medoxomil ([2]; SHR, result in words): obviously superior to that of the Azilsartan medoxomil positive drug; reduction effects on the heart rate of SHR rats ([2]; during the whole administration, result in words): significant reduction effects on the heart rate
CCOc1nc2cccc(C(=O)OCc3no[n+]([O-])c3C(C)(C)C)c2n1Cc1ccc(-c2ccccc2-c2noc(=O)[nH]2)cc1 [QR01026] | -10 ± 5 | 24 ± 6.5 | 4.3 ± 5.1 | -3 ± 7 | -8 ± 6 | 16 ± 2.8 | -10 ± 6 | 31 ± 2.8 | – | 5.2 ± 3.2 | 3.8 ± 4.5 | -5 ± 8 | -4 ± 7 | –
CCOc1nc2cccc(C(=O)OC(OC(=O)OCc3nc(C)c(C)nc3C)C(C)C)c2n1Cc1ccc(-c2ccccc2-c2noc(=O)[nH]2)cc1 (centres unmarked) [QR01027] | -5 ± 3 | 18 ± 2.9 | 4.8 ± 4.2 | 5 | -2 ± 3 | 14 ± 2 | -6 ± 4 | 23 ± 4.6 | – | 5.2 ± 3 | 2.8 ± 3.9 | -3 ± 4 | -3 ± 4 | –
CCOc1nc2cccc(C(=O)OC(OC(=O)OCc3nc(C)c(C)nc3C)C(C)(C)C)c2n1Cc1ccc(-c2ccccc2-c2noc(=O)[nH]2)cc1 (centres unmarked) [QR01028] | -6 ± 4 | 18 ± 4.2 | 3.9 ± 5.2 | -3 ± 4 | -6 ± 2 | 15 ± 0.9 | -12 ± 5 | 25 ± 3.6 | – | 1.7 ± 5.3 | 2.5 ± 4.6 | -4 ± 3 | -2 ± 3 | –
CCOc1nc2cccc(C(=O)OCOC(=O)OCc3ccno3)c2n1Cc1ccc(-c2ccccc2-c2noc(=O)[nH]2)cc1 [QR01030] | -20 ± 6 | 25 ± 3.6 | 5.2 ± 4.3 | 4 | -12 ± 6 | 18 ± 2 | -18 ± 7 | 30 ± 4.6 | – | 2.9 ± 3 | 3.7 ± 5.8 | -2 ± 4 | -3 ± 5 | –
CCOc1nc2cccc(C(=O)OCOC(=O)OCc3cn(C)cn3)c2n1Cc1ccc(-c2ccccc2-c2noc(=O)[nH]2)cc1 [QR01031] | -18 ± 6 | 25 ± 5.7 | 4.5 ± 3.8 | -4 ± 3 | -11 ± 5 | 18 ± 3.5 | -17 ± 5 | 32 ± 2.6 | – | 2.9 ± 2.6 | 4.7 ± 3.1 | -5 ± 5 | -8 ± 4 | –
CCOc1nc2cccc(C(=O)OCOC(=O)OCc3ccn(C)c3)c2n1Cc1ccc(-c2ccccc2-c2noc(=O)[nH]2)cc1 [QR01032] | -9 ± 4 | 28 ± 3.1 | 5.2 ± 2.7 | -5 ± 2 | -8 ± 6 | 20 ± 4.1 | -9 ± 5 | 35 ± 4.6 | close to that of Azilsartan medoxomil | 4.7 ± 3.1 | 4.8 ± 3.6 | -8 ± 6 | -3 ± 5 | –
CCOc1nc2cccc(C(=O)OC(C)OC(=O)OCc3ccn(C)c3)c2n1Cc1ccc(-c2ccccc2-c2noc(=O)[nH]2)cc1 (centres unmarked) [QR01033] | -15 ± 6 | 26 ± 3.7 | 6.4 ± 2.9 | -5 ± 3 | -8 ± 2 | 19 ± 2.1 | -19 ± 7 | 32 ± 4 | – | 2.3 ± 3.2 | 4.2 ± 5 | -3 ± 4 | -1 ± 7 | –
CCOc1nc2cccc(C(=O)OC3CCc4c3no[n+]4[O-])c2n1Cc1ccc(-c2ccccc2-c2noc(=O)[nH]2)cc1 (centres unmarked) [QR01035] | -23 ± 6 | 28 ± 4.5 | 3.4 ± 2.5 | -3 ± 3 | -14 ± 6 | 20 ± 3.1 | -26 ± 5 | 36 ± 4.6 | close to that of Azilsartan medoxomil | 6.4 ± 2.1 | 6.1 ± 3.8 | -4 ± 3 | 6 | –

Source: patent US9708306B2, “Benzimidazole derivatives and preparation process and pharmaceutical uses thereof” (WUHAN LL SCIENCE AND TECHNOLOGY DEVELOPMENT CO., LTD, priority 2015, dated 2017)
